From patent US9586936B2, “Heteroarylamine derivatives as protein kinase inhibitors” (KOREA INSTITUTE OF SCIENCE AND TECHNOLOGY, priority 2014, dated 2017)
Read-outs that look alike come from different tables or passages of the source.

Tests used:
[1] = molecular target: (Homo sapiens, UniProt P09769); assay: kinase inhibition activity, full kinase panel; format: biochemical; conditions: 1 μM of the compound; read-out: kinase activity inhibited (% inhibition)
Description: (§1) In order to measure the inhibition activity (% inhibition) of the compound of the present invention against protein kinases, a biochemical assay was conducted using a full kinase panel consisting of 340 kinases. As a representative compound of the present invention, N-(2,6-dichloro-3,5-dimethoxyphenyl)-1-(6-((4-(4-ethylpiperazin-1-yl)phenyl)amino)pyrimidin-4-yl)-1H-benz[d]imidazol-2-amine synthesized in Example 1 was used.
(§2) The kinases whose activity is inhibited by 50% or more when treated with 1 μM of the compound of Example 1 are listed in Table 1.

TAOK1 = TAOK1 (Homo sapiens, UniProt Q7L7X3); assay: kinase inhibition activity, full kinase panel; format: biochemical; conditions: 1 μM of the compound; read-out: kinase activity inhibited (% inhibition)
Description: as §1, §2

c-Src = c-Src (Homo sapiens, UniProt P12931); assay: kinase inhibition activity, full kinase panel; format: biochemical; conditions: 1 μM of the compound; read-out: kinase activity inhibited (% inhibition)
Description: as §1, §2

DYRK1 = DYRK1 (Homo sapiens, UniProt Q13627); assay: kinase inhibition activity, full kinase panel; format: biochemical; conditions: 1 μM of the compound; read-out: kinase activity inhibited (% inhibition)
Description: as §1, §2

FLT4 = FLT4 (Homo sapiens, UniProt P35916); assay: kinase inhibition activity, full kinase panel; format: biochemical; conditions: 1 μM of the compound; read-out: kinase activity inhibited (% inhibition)
Description: as §1, §2

HER2 = HER2 (Homo sapiens, UniProt P04626); assay: kinase inhibition activity, full kinase panel; format: biochemical; conditions: 1 μM of the compound; read-out: kinase activity inhibited (% inhibition)
Description: as §1, §2

ALK = ALK (Homo sapiens, UniProt Q9UM73); assay: kinase inhibition activity, full kinase panel; format: biochemical; conditions: 1 μM of the compound; read-out: kinase activity inhibited (% inhibition)
Description: as §1, §2

c-Kit = c-Kit (Homo sapiens, UniProt P10721); assay: kinase inhibition activity, full kinase panel; format: biochemical; conditions: 1 μM of the compound; read-out: kinase activity inhibited (% inhibition)
Description: as §1, §2

FLT3 = FLT3 (Homo sapiens, UniProt P36888); assay: kinase inhibition activity, full kinase panel; format: biochemical; conditions: 1 μM of the compound; read-out: kinase activity inhibited (% inhibition)
Description: as §1, §2

TAOK2 = TAOK2 (Homo sapiens, UniProt Q9UL54); assay: kinase inhibition activity, full kinase panel; format: biochemical; conditions: 1 μM of the compound; read-out: kinase activity inhibited (% inhibition)
Description: as §1, §2

DYRK2 = DYRK2 (Homo sapiens, UniProt Q92630); assay: kinase inhibition activity, full kinase panel; format: biochemical; conditions: 1 μM of the compound; read-out: kinase activity inhibited (% inhibition)
Description: as §1, §2

TIE2 = TIE2 (Homo sapiens, UniProt Q02763); assay: kinase inhibition activity, full kinase panel; format: biochemical; conditions: 1 μM of the compound; read-out: kinase activity inhibited (% inhibition)
Description: as §1, §2

BMX = BMX (Homo sapiens, UniProt P51813); assay: kinase inhibition activity, full kinase panel; format: biochemical; conditions: 1 μM of the compound; read-out: kinase activity inhibited (% inhibition)
Description: as §1, §2

DDR2 = DDR2 (Homo sapiens, UniProt Q16832); assay: kinase inhibition activity, full kinase panel; format: biochemical; conditions: 1 μM of the compound; read-out: kinase activity inhibited (% inhibition)
Description: as §1, §2

MEKK3 = MEKK3 (Homo sapiens, UniProt Q99759); assay: kinase inhibition activity, full kinase panel; format: biochemical; conditions: 1 μM of the compound; read-out: kinase activity inhibited (% inhibition)
Description: as §1, §2

ACK1 = ACK1 (Homo sapiens, UniProt Q07912); assay: kinase inhibition activity, full kinase panel; format: biochemical; conditions: 1 μM of the compound; read-out: kinase activity inhibited (% inhibition)
Description: as §1, §2

FGFR2 = FGFR2 (Homo sapiens, UniProt P21802); assay: kinase inhibition activity, full kinase panel; format: biochemical; conditions: 1 μM of the compound; read-out: kinase activity inhibited (% inhibition)
Description: as §1, §2

LIMK1 = LIMK1 (Homo sapiens, UniProt P53667); assay: kinase inhibition activity, full kinase panel; format: biochemical; conditions: 1 μM of the compound; read-out: kinase activity inhibited (% inhibition)
Description: as §1, §2

MAP4K5 = MAP4K5 (Homo sapiens, UniProt Q9Y4K4); assay: kinase inhibition activity, full kinase panel; format: biochemical; conditions: 1 μM of the compound; read-out: kinase activity inhibited (% inhibition)
Description: as §1, §2

SIK2 = SIK2 (Homo sapiens, UniProt Q9H0K1); assay: kinase inhibition activity, full kinase panel; format: biochemical; conditions: 1 μM of the compound; read-out: kinase activity inhibited (% inhibition)
Description: as §1, §2

SIK1 = SIK1 (Homo sapiens, UniProt P57059); assay: kinase inhibition activity, full kinase panel; format: biochemical; conditions: 1 μM of the compound; read-out: kinase activity inhibited (% inhibition)
Description: as §1, §2

EGFR = EGFR (Homo sapiens, UniProt P00533); assay: kinase inhibition activity, full kinase panel; format: biochemical; conditions: 1 μM of the compound; read-out: kinase activity inhibited (% inhibition)
Description: as §1, §2

BLK = BLK (Homo sapiens, UniProt P51451); assay: kinase inhibition activity, full kinase panel; format: biochemical; conditions: 1 μM of the compound; read-out: kinase activity inhibited (% inhibition)
Description: as §1, §2

LYN = LYN (Homo sapiens, UniProt P07948); assay: kinase inhibition activity, full kinase panel; format: biochemical; conditions: 1 μM of the compound; read-out: kinase activity inhibited (% inhibition)
Description: as §1, §2

FGFR1 = FGFR1 (Homo sapiens, UniProt P11362); assay: kinase inhibition activity, full kinase panel; format: biochemical; conditions: 1 μM of the compound; read-out: kinase activity inhibited (% inhibition)
Description: as §1, §2

SIK3 = SIK3 (Homo sapiens, UniProt Q9Y2K2); assay: kinase inhibition activity, full kinase panel; format: biochemical; conditions: 1 μM of the compound; read-out: kinase activity inhibited (% inhibition)
Description: as §1, §2

ROS = ROS (Homo sapiens, UniProt P08922); assay: kinase inhibition activity, full kinase panel; format: biochemical; conditions: 1 μM of the compound; read-out: kinase activity inhibited (% inhibition)
Description: as §1, §2

DDR1 = DDR1 (Homo sapiens, UniProt Q08345); assay: kinase inhibition activity, full kinase panel; format: biochemical; conditions: 1 μM of the compound; read-out: kinase activity inhibited (% inhibition)
Description: as §1, §2

TRKA = TRKA (Homo sapiens, UniProt P04629); assay: kinase inhibition activity, full kinase panel; format: biochemical; conditions: 1 μM of the compound; read-out: kinase activity inhibited (% inhibition)
Description: as §1, §2

YES = YES (Homo sapiens, UniProt P07947); assay: kinase inhibition activity, full kinase panel; format: biochemical; conditions: 1 μM of the compound; read-out: kinase activity inhibited (% inhibition)
Description: as §1, §2

TNK1 = TNK1 (Homo sapiens, UniProt Q13470); assay: kinase inhibition activity, full kinase panel; format: biochemical; conditions: 1 μM of the compound; read-out: kinase activity inhibited (% inhibition)
Description: as §1, §2

Fyn = Fyn (Homo sapiens, UniProt P06241); assay: kinase inhibition activity, full kinase panel; format: biochemical; conditions: 1 μM of the compound; read-out: kinase activity inhibited (% inhibition)
Description: as §1, §2

DYRK1B = DYRK1B (Homo sapiens, UniProt Q9Y463); assay: kinase inhibition activity, full kinase panel; format: biochemical; conditions: 1 μM of the compound; read-out: kinase activity inhibited (% inhibition)
Description: as §1, §2

LCK = LCK (Homo sapiens, UniProt P06239); assay: kinase inhibition activity, full kinase panel; format: biochemical; conditions: 1 μM of the compound; read-out: kinase activity inhibited (% inhibition)
Description: as §1, §2

FGFR3 = FGFR3 (Homo sapiens, UniProt P22607); assay: kinase inhibition activity, full kinase panel; format: biochemical; conditions: 1 μM of the compound; read-out: kinase activity inhibited (% inhibition)
Description: as §1, §2

ABL2 = ABL2 (Homo sapiens, UniProt P42684); assay: kinase inhibition activity, full kinase panel; format: biochemical; conditions: 1 μM of the compound; read-out: kinase activity inhibited (% inhibition)
Description: as §1, §2

[2] = in-vivo PK profile, rat PK; conditions: Sprague-Dawley rat; for MRT inf: read-out: MRT(0-∞)
Text: The in-vivo PK profile (mouse PK/ICR mice and rat PK/Sprague-Dawley rat) of N-(2,6-dichloro-3,5-dimethoxyphenyl)-1-(6-((4-(4-ethylpiperazin-1-yl)phenyl)amino)pyrimidin-4-yl)-1H-benz[d]imidazol-2-amine synthesized in Example 1 is as follows.

TIE2, sequence (Q02763 23-1124): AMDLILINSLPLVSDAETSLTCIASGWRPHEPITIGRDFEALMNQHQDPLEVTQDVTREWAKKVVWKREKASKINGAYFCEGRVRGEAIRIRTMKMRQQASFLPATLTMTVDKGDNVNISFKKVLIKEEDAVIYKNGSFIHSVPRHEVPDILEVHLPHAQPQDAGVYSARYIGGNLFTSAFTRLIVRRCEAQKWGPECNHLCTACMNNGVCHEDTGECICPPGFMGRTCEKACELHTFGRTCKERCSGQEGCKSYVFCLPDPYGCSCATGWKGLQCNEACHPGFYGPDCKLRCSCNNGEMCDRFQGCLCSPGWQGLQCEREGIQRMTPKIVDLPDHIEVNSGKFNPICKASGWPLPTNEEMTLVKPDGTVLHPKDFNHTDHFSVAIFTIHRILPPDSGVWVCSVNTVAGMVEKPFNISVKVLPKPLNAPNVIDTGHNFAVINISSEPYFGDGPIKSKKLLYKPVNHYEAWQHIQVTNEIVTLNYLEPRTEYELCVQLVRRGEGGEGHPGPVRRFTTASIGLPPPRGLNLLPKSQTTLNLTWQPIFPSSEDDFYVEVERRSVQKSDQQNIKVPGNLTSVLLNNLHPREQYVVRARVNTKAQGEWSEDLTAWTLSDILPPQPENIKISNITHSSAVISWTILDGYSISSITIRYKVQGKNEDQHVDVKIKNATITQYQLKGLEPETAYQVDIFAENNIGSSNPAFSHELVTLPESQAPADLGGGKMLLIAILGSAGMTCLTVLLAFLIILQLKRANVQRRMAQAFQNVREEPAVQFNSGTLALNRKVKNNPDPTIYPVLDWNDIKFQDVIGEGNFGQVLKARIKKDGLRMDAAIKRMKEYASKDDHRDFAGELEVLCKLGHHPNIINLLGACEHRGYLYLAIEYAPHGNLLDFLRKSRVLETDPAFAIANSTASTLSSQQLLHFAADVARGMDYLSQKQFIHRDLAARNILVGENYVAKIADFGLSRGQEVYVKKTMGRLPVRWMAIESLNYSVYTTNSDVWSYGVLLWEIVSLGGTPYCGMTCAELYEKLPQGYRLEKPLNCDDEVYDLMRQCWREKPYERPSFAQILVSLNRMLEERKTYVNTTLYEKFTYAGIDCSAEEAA
BMX, sequence (P51813 whole entry): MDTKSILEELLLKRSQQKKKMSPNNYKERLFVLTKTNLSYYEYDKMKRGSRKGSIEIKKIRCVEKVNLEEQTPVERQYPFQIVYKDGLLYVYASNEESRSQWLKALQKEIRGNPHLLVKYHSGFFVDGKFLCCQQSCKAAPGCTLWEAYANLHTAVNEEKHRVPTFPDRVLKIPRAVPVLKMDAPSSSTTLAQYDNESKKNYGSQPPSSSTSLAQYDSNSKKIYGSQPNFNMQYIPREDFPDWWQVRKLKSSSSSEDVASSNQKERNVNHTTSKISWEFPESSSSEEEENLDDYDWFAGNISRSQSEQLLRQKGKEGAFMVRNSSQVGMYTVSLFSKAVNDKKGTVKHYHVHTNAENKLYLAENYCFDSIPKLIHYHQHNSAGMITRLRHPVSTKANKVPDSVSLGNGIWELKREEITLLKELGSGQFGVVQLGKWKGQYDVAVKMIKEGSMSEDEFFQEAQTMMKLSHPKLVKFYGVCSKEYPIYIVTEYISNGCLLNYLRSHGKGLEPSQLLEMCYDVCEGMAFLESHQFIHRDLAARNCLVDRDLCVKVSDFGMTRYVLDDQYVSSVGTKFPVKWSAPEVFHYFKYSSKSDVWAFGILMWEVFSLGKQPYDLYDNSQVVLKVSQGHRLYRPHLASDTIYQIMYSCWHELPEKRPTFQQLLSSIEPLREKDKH
FLT4, sequence (P35916 25-1363): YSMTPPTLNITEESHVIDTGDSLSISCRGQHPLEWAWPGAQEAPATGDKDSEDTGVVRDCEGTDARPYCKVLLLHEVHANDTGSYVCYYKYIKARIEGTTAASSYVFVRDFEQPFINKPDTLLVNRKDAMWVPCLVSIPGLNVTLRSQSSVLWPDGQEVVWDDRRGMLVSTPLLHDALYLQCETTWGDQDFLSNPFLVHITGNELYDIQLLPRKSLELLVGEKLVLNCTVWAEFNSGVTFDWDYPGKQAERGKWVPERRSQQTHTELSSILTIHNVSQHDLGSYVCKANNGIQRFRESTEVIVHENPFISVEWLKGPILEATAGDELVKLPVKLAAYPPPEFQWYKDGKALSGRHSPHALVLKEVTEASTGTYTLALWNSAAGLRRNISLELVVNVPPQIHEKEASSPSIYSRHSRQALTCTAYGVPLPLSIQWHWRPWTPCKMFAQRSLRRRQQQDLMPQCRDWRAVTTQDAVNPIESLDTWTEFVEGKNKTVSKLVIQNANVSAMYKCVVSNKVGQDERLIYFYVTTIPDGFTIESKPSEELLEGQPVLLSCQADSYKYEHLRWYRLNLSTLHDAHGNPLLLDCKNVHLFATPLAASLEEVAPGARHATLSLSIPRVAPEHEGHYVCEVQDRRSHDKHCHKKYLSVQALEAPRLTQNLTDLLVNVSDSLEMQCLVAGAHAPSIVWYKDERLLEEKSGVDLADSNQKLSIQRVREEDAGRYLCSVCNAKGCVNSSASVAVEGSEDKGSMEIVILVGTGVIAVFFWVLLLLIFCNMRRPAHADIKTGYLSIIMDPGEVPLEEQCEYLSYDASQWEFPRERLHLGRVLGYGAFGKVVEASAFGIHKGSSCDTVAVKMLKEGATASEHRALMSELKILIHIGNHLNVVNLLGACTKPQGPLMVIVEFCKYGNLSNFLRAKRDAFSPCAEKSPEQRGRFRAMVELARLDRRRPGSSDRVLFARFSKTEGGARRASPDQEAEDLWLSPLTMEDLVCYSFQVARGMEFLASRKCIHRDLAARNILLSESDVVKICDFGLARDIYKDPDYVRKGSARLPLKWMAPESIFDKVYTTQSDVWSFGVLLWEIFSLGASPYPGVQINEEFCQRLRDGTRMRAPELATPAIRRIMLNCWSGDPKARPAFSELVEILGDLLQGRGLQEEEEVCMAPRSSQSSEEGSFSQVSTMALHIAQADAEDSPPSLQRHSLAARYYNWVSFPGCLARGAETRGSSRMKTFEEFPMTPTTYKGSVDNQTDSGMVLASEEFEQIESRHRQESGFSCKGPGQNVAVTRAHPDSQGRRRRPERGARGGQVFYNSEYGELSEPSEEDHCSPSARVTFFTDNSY
ABL2, sequence (P42684 whole entry): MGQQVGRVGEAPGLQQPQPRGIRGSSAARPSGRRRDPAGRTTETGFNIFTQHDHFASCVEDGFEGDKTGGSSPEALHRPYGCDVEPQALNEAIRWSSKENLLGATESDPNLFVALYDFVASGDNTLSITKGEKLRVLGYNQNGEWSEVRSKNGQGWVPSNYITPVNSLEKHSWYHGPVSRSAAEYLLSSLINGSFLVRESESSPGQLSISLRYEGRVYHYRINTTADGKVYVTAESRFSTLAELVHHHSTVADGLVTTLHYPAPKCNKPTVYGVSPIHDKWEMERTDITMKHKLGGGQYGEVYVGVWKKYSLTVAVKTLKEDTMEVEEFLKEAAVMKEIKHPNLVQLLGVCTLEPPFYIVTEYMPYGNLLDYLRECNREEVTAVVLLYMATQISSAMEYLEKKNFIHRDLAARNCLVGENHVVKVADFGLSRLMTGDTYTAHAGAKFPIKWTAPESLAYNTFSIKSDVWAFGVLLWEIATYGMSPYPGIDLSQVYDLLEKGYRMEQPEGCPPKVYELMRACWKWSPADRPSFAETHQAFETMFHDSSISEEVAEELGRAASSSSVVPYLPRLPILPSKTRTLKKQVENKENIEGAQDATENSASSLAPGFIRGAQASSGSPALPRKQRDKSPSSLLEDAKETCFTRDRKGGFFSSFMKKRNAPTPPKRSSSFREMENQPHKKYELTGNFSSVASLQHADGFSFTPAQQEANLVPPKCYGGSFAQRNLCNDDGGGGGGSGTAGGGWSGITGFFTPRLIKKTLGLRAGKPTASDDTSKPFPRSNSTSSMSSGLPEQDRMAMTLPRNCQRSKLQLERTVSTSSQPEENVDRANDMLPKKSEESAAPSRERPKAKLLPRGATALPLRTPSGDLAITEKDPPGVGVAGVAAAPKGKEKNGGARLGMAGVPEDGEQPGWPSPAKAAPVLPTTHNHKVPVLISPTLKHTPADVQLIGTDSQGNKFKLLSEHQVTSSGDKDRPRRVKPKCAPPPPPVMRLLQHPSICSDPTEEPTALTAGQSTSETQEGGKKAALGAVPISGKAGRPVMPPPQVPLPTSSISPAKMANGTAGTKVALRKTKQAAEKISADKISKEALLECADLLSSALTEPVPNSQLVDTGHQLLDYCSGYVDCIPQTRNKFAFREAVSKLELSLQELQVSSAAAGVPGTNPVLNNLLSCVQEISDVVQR
YES, sequence (P07947 whole entry): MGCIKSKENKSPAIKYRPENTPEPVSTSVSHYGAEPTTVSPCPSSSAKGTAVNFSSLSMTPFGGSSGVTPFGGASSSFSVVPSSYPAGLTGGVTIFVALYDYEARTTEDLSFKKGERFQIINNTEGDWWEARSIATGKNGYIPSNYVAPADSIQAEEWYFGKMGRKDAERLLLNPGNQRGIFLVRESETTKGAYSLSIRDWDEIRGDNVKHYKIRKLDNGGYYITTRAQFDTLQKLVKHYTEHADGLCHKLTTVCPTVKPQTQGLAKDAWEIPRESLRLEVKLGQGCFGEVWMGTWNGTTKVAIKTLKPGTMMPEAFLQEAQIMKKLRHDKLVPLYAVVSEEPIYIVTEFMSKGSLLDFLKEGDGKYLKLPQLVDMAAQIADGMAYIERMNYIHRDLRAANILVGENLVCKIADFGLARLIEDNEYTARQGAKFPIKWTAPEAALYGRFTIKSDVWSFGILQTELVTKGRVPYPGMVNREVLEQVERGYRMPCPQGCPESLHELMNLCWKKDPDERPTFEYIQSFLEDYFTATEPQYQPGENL

## CCN1CCN(c2ccc(Nc3cc(-n4c(Nc5c(Cl)c(OC)cc(OC)c5Cl)nc5ccccc54)ncn3)cc2)CC1 [Example 1, N-(2,6-dichloro-3,5-dimethoxyphenyl)-1-(6-((4-(4-ethylpiperazin-1-yl)phenyl)amino)pyrimidin-4-yl)-1H-benz[d]imidazol-2-amine]
[1]
  inhibition at 1 µM: ≥ 50%
TAOK1
  inhibition at 1 µM: ≥ 50%
c-Src
  inhibition at 1 µM: ≥ 50%
DYRK1
  inhibition at 1 µM: ≥ 50%
FLT4
  inhibition at 1 µM: ≥ 50%
HER2
  inhibition at 1 µM: ≥ 50%
ALK
  inhibition at 1 µM: ≥ 50%
c-Kit
  inhibition at 1 µM: ≥ 50%
FLT3
  inhibition at 1 µM: ≥ 50%
TAOK2
  inhibition at 1 µM: ≥ 50%
DYRK2
  inhibition at 1 µM: ≥ 50%
TIE2
  inhibition at 1 µM: ≥ 50%
BMX
  inhibition at 1 µM: ≥ 50%
DDR2
  inhibition at 1 µM: ≥ 50%
MEKK3
  inhibition at 1 µM: ≥ 50%
ACK1
  inhibition at 1 µM: ≥ 50%
FGFR2
  inhibition at 1 µM: ≥ 50%
LIMK1
  inhibition at 1 µM: ≥ 50%
MAP4K5
  inhibition at 1 µM: ≥ 50%
SIK2
  inhibition at 1 µM: ≥ 50%
SIK1
  inhibition at 1 µM: ≥ 50%
EGFR
  inhibition at 1 µM: ≥ 50%
BLK
  inhibition at 1 µM: ≥ 50%
LYN
  inhibition at 1 µM: ≥ 50%
FGFR1
  inhibition at 1 µM: ≥ 50%
SIK3
  inhibition at 1 µM: ≥ 50%
ROS
  inhibition at 1 µM: ≥ 50%
DDR1
  inhibition at 1 µM: ≥ 50%
TRKA
  inhibition at 1 µM: ≥ 50%
YES
  inhibition at 1 µM: ≥ 50%
TNK1
  inhibition at 1 µM: ≥ 50%
Fyn
  inhibition at 1 µM: ≥ 50%
DYRK1B
  inhibition at 1 µM: ≥ 50%
LCK
  inhibition at 1 µM: ≥ 50%
FGFR3
  inhibition at 1 µM: ≥ 50%
ABL2
  inhibition at 1 µM: ≥ 50%
[2]; PO 5 mg/kg
  F*: 13.46%
[2]; in vivo, IV 5 mg/kg
  AUC(0-inf): 884 ng·h/mL
  AUC(0-t): 844 ng·h/mL
  Cmax: 271 ng/mL
  Tmax: 0.083 h
  clearance: 97.3 mL/min/kg
  half-life: 5.75 h
  MRT inf: 6.37 h
[2]; in vivo, IV 5 mg/kg, read-out: Vz
  Vd: 48 L/kg
[2]; in vivo, PO 5 mg/kg
  AUC(0-inf): 652 ng·h/mL
  AUC(0-t): 129 ng·h/mL
  Cmax: 11.6 ng/mL
  Tmax: 5.33 h
  half-life: 9.14 h
  MRT inf: 12.6 h
